According to US20100316529A1, “Anti-Microbial Systems and Methods” (priority 2001, published 2010):
“And” between values parts separate entries of the source, which are not always exact repeats. Identical values can stand only once.

Legend:
Type in all cases: cell-based
E. coli = assay: EDTA salt dilution test, MIC/MBC; conditions: three entries
Protocol: (§1) Protocol one: Broth dilutions:
(§2) Inoculate a 25 ml nutrient broth (Oxoid No2) in a sterile universal container with one of the following organisms; Pseudomonas aeruginosa, Proteus Mirabilis, E. coli, Klebsiella pneumoniae, Staph aureus, Coagulase negative staphylococci, Enterococcus faecalis or MRSA.
(§3) Incubate the broth at 37° C. overnight.
(§4) To make these concentrations put the EDTA needed for 10 mLs in only 9 mLs of broth in sterile universal containers, as this will be diluted further when the organisms are added.
(§5) Dilute the overnight broth cultures to 10^7 organisms/mL using more sterile nutrient broth.
(§6) Add 1 mL of this diluent to each of the EDTA series broths. This gives a final concentration of 10^6 organism/mL in the EDTA broths.
(§7) Incubate for 18 hours at 37° C.
(§8) Next day visually read the MIC's by observing the turbidity of the broths.
(§9) Plate out 1 uL of each dilution onto fresh blood agar plate and spread using a sterile plastic spreader.
(§10) Incubate overnight at 37° C.
(§11) Next day read the MBC's by performing colony counts.

Ent. faecalis = assay: EDTA salt dilution test, MIC/MBC
Protocol: as §1, §2, §3, §4, §5, §6, §7, §8, §9, §10, §11

Kleb. pnemoniae = assay: EDTA salt dilution test, MIC/MBC; conditions: two entries
Protocol: as §1, §2, §3, §4, §5, §6, §7, §8, §9, §10, §11

MRSA = assay: EDTA salt dilution test, MIC/MBC; conditions: five entries
Protocol: as §1, §2, §3, §4, §5, §6, §7, §8, §9, §10, §11

Proteus mirabilis = assay: EDTA salt dilution test, MIC/MBC; conditions: two entries
Protocol: as §1, §2, §3, §4, §5, §6, §7, §8, §9, §10, §11

Pseudomonas aeruginosa = assay: EDTA salt dilution test, MIC/MBC; conditions: two entries
Protocol: as §1, §2, §3, §4, §5, §6, §7, §8, §9, §10, §11

Pseudomonas sp. = assay: EDTA salt dilution test, MIC/MBC
Protocol: as §1, §2, §3, §4, §5, §6, §7, §8, §9, §10, §11

S. aureus = assay: EDTA salt dilution test, MIC/MBC; conditions: five entries
Protocol: as §1, §2, §3, §4, §5, §6, §7, §8, §9, §10, §11

S. capitis = assay: EDTA salt dilution test, MIC/MBC; conditions: two entries
Protocol: as §1, §2, §3, §4, §5, §6, §7, §8, §9, §10, §11

S. epidermidis = assay: EDTA salt dilution test, MIC/MBC; conditions: two entries
Protocol: as §1, §2, §3, §4, §5, §6, §7, §8, §9, §10, §11

S. lentus = assay: EDTA salt dilution test, MIC/MBC
Protocol: as §1, §2, §3, §4, §5, §6, §7, §8, §9, §10, §11

S. simulans = assay: EDTA salt dilution test, MIC/MBC
Protocol: as §1, §2, §3, §4, §5, §6, §7, §8, §9, §10, §11

S. xylosus = assay: EDTA salt dilution test, MIC/MBC
Protocol: as §1, §2, §3, §4, §5, §6, §7, §8, §9, §10, §11

VRE = assay: EDTA salt dilution test, MIC/MBC; conditions: two entries
Protocol: as §1, §2, §3, §4, §5, §6, §7, §8, §9, §10, §11

Ent. faeculm = assay: EDTA salt dilution test, MIC/MBC
Kleb. oxytoca = assay: EDTA salt dilution test, MIC/MBC
Kleb. ornitholytica = assay: EDTA salt dilution test, MIC/MBC
Ent. cloacae = assay: EDTA salt dilution test, MIC/MBC; conditions: three entries
Steno. maltophilia = assay: EDTA salt dilution test, MIC/MBC
Cornyeform amycolatum = assay: EDTA salt dilution test, MIC/MBC
Coryneform strait/amy = assay: EDTA salt dilution test, MIC/MBC
Acinetobacter baumanii = assay: EDTA salt dilution test, MIC/MBC; conditions: two entries, Exhibit A2
Proteus vulgaris = assay: EDTA salt dilution test, MIC/MBC
C. lucitaniae = assay: EDTA agar dilution method, yeasts, MIC/MBC; conditions: Exhibit C
Source text: (§12) Protocol 3: Agar dilutions.
Do this until all the media is used up.

C. albicans = assay: EDTA agar dilution method, yeasts, MIC/MBC; conditions: three entries, Exhibit C
Protocol: (§13) The bactericidal effects were measured as the Minimum Bactericidal Concentration (MBC), while the inhibitory effects were measured as the Minimum Inhibitory Concentration (MIC). In each case, the concentration was measured as milligrams of the disinfectant salt per milliliter of water (mg/ml).
as §12
(§14) Prepare nutrient agar plates with increasing concentrations of EDTA, 0, 0.5, 1, 1.5, 2, 4, 6, 8, 10, 15, 20, 25, 30 mg/mL, using the following method. • Pour 300 mL distilled water into a sterile glass bottle. • Add the appropriate amount of EDTA. This is the concentration desired ×300, in grams. • Once the EDTA has fully dissolved, add 8.4 g of Nutrient agar powder (Oxoid). Mix thoroughly. • Do this for each concentration of EDTA required. […] Do this until all the media is used up. Label the plates with the concentration of EDTA they contain. • These plates can then be stored, until they are needed, in a 4° C. fridge. • Use an automatic plate inoculator to inoculate each plate with 21 organisms.

C. glabrata = assay: EDTA agar dilution method, yeasts, MIC/MBC; conditions: two entries, Exhibit C
Protocol: as §13, §12, §14

C. guilliermondii = assay: EDTA agar dilution method, yeasts, MIC/MBC; conditions: Exhibit C
Protocol: as §13, §12, §14

C. parapsilosis = assay: EDTA agar dilution method, yeasts, MIC/MBC; conditions: Exhibit C
Protocol: as §13, §12, §14

C. tropicalis = assay: EDTA agar dilution method, yeasts, MIC/MBC; conditions: Exhibit C
Protocol: as §13, §12, §14

variety of microbes = assay: Efficacy of disinfectant salts of EDTA against a number of microbes; conditions: general statement
Protocol: The Applicant has tested the efficacy of a number of disinfectant salts of EDTA against a number of microbes.
as §1, §2, §3
Next day make up a series of nutrient broths containing a dilution of the appropriate EDTA as in the following list; 0 mg/mL, 0.25 mg/mL, 0.5 mg/mL, 1.0 mg/mL, 1.5 mg/mL, 2.0 mg/mL, 4.0 mg/mL, 6.0 mg/mL, 8.0 mg/mL, 10 mg/mL, 15 mg/mL, 20 mg/mL, 25 mg/mL, 30 mg/ml, 40 mg/mL, 50 mg/mL, 60 mg/mL, 70 mg/mL, 80 mg/mL, 90 mg/mL, 100 mg/mL.
as §4, §5, §6, §7
Next day visually read the MIC's by observing the turbidity of the broths. […]
as §11

Structure (SMILES): O=C([O-])CN(CCN(CC(=O)O)CC(=O)O)CC(=O)[O-].[K+].[K+] [Dipotassium EDTA]
- MBC, minimum concentration required to kill an entire population (E. coli; Exhibit A1): >15000 µg/mL and 15000 µg/mL
- MIC, minimum concentration required to inhibit growth (E. coli; Exhibit A2): 1000 µg/mL
- MBC, minimum concentration required to kill an entire population (Ent. faecalis; Exhibit A1): 15000 µg/mL
- MIC, minimum concentration required to inhibit growth (Ent. faecalis; Exhibit A2): 1000 µg/mL
- MBC, minimum concentration required to kill an entire population (Kleb. pnemoniae; Exhibit A1): 15000 µg/mL
- MIC, minimum concentration required to inhibit growth (Kleb. pnemoniae; Exhibit A2): 1500 µg/mL and 1000 µg/mL
- MBC, minimum concentration required to kill an entire population (MRSA; Exhibit A1): 6000 µg/mL and 10000 µg/mL and 8000 µg/mL
- MIC, minimum concentration required to inhibit growth (MRSA; Exhibit A2): 1000 µg/mL
- MBC, minimum concentration required to kill an entire population (Proteus mirabilis; Exhibit A1): >15000 µg/mL and 15000 µg/mL
- MIC, minimum concentration required to inhibit growth (Proteus mirabilis; Exhibit A2): <500 µg/mL
- MBC, minimum concentration required to kill an entire population (Pseudomonas aeruginosa; Exhibit A1): >15000 µg/mL
- MIC, minimum concentration required to inhibit growth (Pseudomonas aeruginosa; Exhibit A2): 1000 µg/mL
- MBC, minimum concentration required to kill an entire population (Pseudomonas sp.; Exhibit A1): 15000 µg/mL
- MIC, minimum concentration required to inhibit growth (Pseudomonas sp.; Exhibit A2): 1000 µg/mL
- MBC, minimum concentration required to kill an entire population (S. aureus; Exhibit A1): 6000 µg/mL and 8000 µg/mL
- MIC, minimum concentration required to inhibit growth (S. aureus; Exhibit A2): 1000 µg/mL
- MBC, minimum concentration required to kill an entire population (S. capitis; Exhibit A1): 8000 µg/mL and 10000 µg/mL
- MIC, minimum concentration required to inhibit growth (S. capitis; Exhibit A2): <500 µg/mL
- MBC, minimum concentration required to kill an entire population (S. epidermidis; Exhibit A1): 8000 µg/mL
- MIC, minimum concentration required to inhibit growth (S. epidermidis; Exhibit A2): <500 µg/mL
- MBC, minimum concentration required to kill an entire population (S. lentus; Exhibit A1): 10000 µg/mL
- MIC, minimum concentration required to inhibit growth (S. lentus; Exhibit A2): <500 µg/mL
- MBC, minimum concentration required to kill an entire population (S. simulans; Exhibit A1): 8000 µg/mL
- MIC, minimum concentration required to inhibit growth (S. simulans; Exhibit A2): <500 µg/mL
- MBC, minimum concentration required to kill an entire population (S. xylosus; Exhibit A1): 6000 µg/mL
- MIC, minimum concentration required to inhibit growth (S. xylosus; Exhibit A2): <500 µg/mL
- MBC, minimum concentration required to kill an entire population (VRE; Exhibit A1): 8000 µg/mL
- MIC, minimum concentration required to inhibit growth (VRE; Exhibit A2): <500 µg/mL and 1000 µg/mL
- MIC, minimum concentration required to inhibit growth (Ent. faeculm; Ent. faecuim, Exhibit A2): <500 µg/mL
- MBC, minimum concentration required to kill an entire population (Ent. faeculm; Ent. faeculm, Exhibit A1): 8000 µg/mL
- MBC, minimum concentration required to kill an entire population (Kleb. oxytoca; Exhibit A1): 15000 µg/mL
- MIC, minimum concentration required to inhibit growth (Kleb. oxytoca; Exhibit A2): 1000 µg/mL
- MBC, minimum concentration required to kill an entire population (Kleb. ornitholytica; Exhibit A1): >15000 µg/mL
- MIC, minimum concentration required to inhibit growth (Kleb. ornitholytica; Exhibit A2): 1000 µg/mL
- MBC, minimum concentration required to kill an entire population (Ent. cloacae; Exhibit A1): 15000 µg/mL and >15000 µg/mL
- MIC, minimum concentration required to inhibit growth (Ent. cloacae; Exhibit A2): 4000 µg/mL and 6000 µg/mL
- MBC, minimum concentration required to kill an entire population (Steno. maltophilia; Exhibit A1): 10000 µg/mL
- MIC, minimum concentration required to inhibit growth (Steno. maltophilia; Exhibit A2): <500 µg/mL
- MBC, minimum concentration required to kill an entire population (Cornyeform amycolatum; Exhibit A1): <500 µg/mL
- MIC, minimum concentration required to inhibit growth (Cornyeform amycolatum; Exhibit A2): <500 µg/mL
- MBC, minimum concentration required to kill an entire population (Coryneform strait/amy; Exhibit A1): <500 µg/mL
- MIC, minimum concentration required to inhibit growth (Coryneform strait/amy; Exhibit A2): <500 µg/mL
- MIC, minimum concentration required to inhibit growth (Acinetobacter baumanii): <500 µg/mL
- MBC, minimum concentration required to kill an entire population (Proteus vulgaris; Exhibit A1): >15000 µg/mL
- MIC, minimum concentration required to inhibit growth (Proteus vulgaris; Exhibit A2): 1000 µg/mL
- MIC's, Minimum Inhibitory Concentration (C. lucitaniae): 500 µg/mL
- MIC's, Minimum Inhibitory Concentration (C. albicans): 500 µg/mL
- MIC's, Minimum Inhibitory Concentration (C. glabrata): 500 µg/mL
- MIC's, Minimum Inhibitory Concentration (C. guilliermondii): 500 µg/mL
- MIC's, Minimum Inhibitory Concentration (C. parapsilosis): 500 µg/mL
- MIC's, Minimum Inhibitory Concentration (C. tropicalis): 1000 µg/mL
- anti-microbial (antifungal and antibacterial) properties compared with the disodium salt (variety of microbes): superior to disodium EDTA
